Entries after “also recorded” stand apart in the source; their conditions may differ.
Columns and labels:
[1] = tested on: blood pressure; assay: Hypertension (APELIN publications repeated with ELABELA); conditions: in vivo
From the text: Regulatory Peptides. 2001; 99(2-3):87-92. • Cheng X, Cheng X S, Pang C C. […] European Journal of Pharmacology. […] Journal of the American College of Cardiology. 2008; 52(11):908-913.

[2] = tested on: hESCs; assay: hESC growth assays (cell counts, colony size, xCELLigence real time cell index); type: cell-based, human
Description: Feeder-free hESCs were cultured in clumps in mTSER1 (Stem Cell Technologies) on Matrigel (BD 354277).
hESCs were dissociated into single cells using Accutase (Stem Cell Technologies) and plated in the presence of 10 μM Y-27632 (ROCK inhibitor) for 12 hours (Watanabe et al., 2007).
(§1) For xCELLigence real time growth assays, 4000 cells were plated per well of an E-plate (ACEA Biosciences) with media changes every 48 hours.
(§2) Recombinant ELA was added at 2.5 uM (or 10 μg/ml). Cell cycle studies were performed with Click-iT EDU staining kit (Invitrogen) and by performing a double thymidine block (2.5 mM thymidine; 16 hour block, 8 hour release, 16 hour block) followed by DAPI staining for DNA content at the indicated times following release.

[3] = tested on: human chondrosarcoma cell line; assay: Growth and survival of chondrosarcoma cells with recombinant ELA; type: cell-based; conditions: unipotent human chondrosarcoma cells
Description: (§3) Primary human fibroblasts, SW1353 chondrosarcoma (ATCC) and NTERA2 hECs (a gift from Barbara Knowles and Davor Solter) were grown in Dulbecco's modified Eagle's medium (DMEM) with 10% FBS (Hyclone), 2 mM GlutaMAX™ (Invitrogen) and 1 mM sodium pyruvate.
as §1, §2

[4] = tested on: hESCs; assay: Embryoid body differentiation of ELA-treated hESCs (qPCR); type: cell-based, human
Description: Embryoid body differentiation was performed by plating 1 million cells per well of an Aggrewell 400 plate in Aggrewell Medium (Stem Cell Technologies) followed by harvesting and replating into low-adhesion plates (Corning).
(§4) After the indicated time periods, embryoid bodies were harvested and RNA extracted using RNeasy kit […]. qPCR reactions were carried out using either Universal FastStart SYBR Green Mastermix (Roche) or using the Universal Probe Library system (Roche) in tandem with Taqman Fast Mastermix (Invitrogen). Primer sequences can be found in Table E1.

[5] = tested on: pulmonary arterial hypertension; assay: Pulmonary arterial hypertension (APELIN publications repeated with ELABELA); conditions: in vivo
From the text: J Clin Invest 2011; 121:3735-46.
Am J Physiol Heart Circ Physiol 2009; 296:H2007-14.

[6] = tested on: shELA hESCs; assay: Rescue of growth of shELA hESCs by exogenous peptide; type: cell-based, human; conditions: addition of recombinant peptide
Description: as §1, §2
To generate stable inducible knockdown of ELA in hESCs, the sequence […] (SEQ ID NO: 132) targeting the 3′UTR of ELA was cloned into pSUPERIOR (Oliogoengine) and nucleofected (Lonza) into Shef4TetR5 hESCs (Zafarana et al., 2009). Neomycin-resistant cells were clonally expanded and assayed for doxycycline (20 ng/ml)-inducible knockdown. Data from one representative clone (Shef4TetR5 shELA) are shown in this paper. Shef4TetR5 shβ2M were derived as previously described (Zafarana et al., 2009). Unless otherwise stated, ELA knockdown was induced on Day −4 with 20 ng/ml doxycycline to generate shELA cells.

[7] = tested on: HIV-1
[8] = tested on: hESCs; assay: Uptake of FITC-labeled recombinant ELA by hESCs (immunofluorescence); type: cell-based, human; conditions: peptide labeled with FITC
[9] = tested on: myocardial ischaemia-reperfusion injury; assay: Myocardial ischaemia-reperfusion injury (APELIN publications repeated with ELABELA); type: in vivo; conditions: administered during reperfusion
From the text: Peptides 2009; 30:1144-52. • Simpkin J C, Yellon D M, Davidson S M, Lim S Y, Wynne A M, Smith C C. […] Basic Res Cardiol 2007; 102:518-28.

[10] = tested on: primary human fibroblasts; assay: Growth and survival of primary fibroblasts with recombinant ELA; type: cell-based; conditions: primary fibroblast cells
Description: as §3, §1, §2

[11] = tested on: SSEA3 and TRA-1-60; assay: FACs of stem cell surface markers in ELA-treated hESCs; type: cell-based, human; conditions: hESCs treated with recombinant ELA
[12] = tested on: heart failure; assay: Heart failure (APELIN publications repeated with ELABELA); conditions: in vivo
From the text: Nature 2012 Aug. […] J Clin Invest. 2013 Nov. 1.

[13] = tested on: other tested cell types; assay: Cellular uptake of recombinant ELA in other tested cell types; type: cell-based; conditions: other tested cell types than hESCs
[14] = tested on: myocardial infarction; assay: Coronary artery disease / myocardial infarction (APELIN publications repeated with ELABELA); type: in vivo, rat
From the text: Peptides 2013; 46:76-82. • Li L, Zeng H, Chen J X. Apelin-13 increases myocardial progenitor cells and improves repair postmyocardial infarction. Am J Physiol Heart Circ Physiol 2012; 303:H605-18. • Pisarenko O I, Serebryakova L I, Pelogeykina Y A, et al. In vivo reduction of reperfusion injury to the heart with apelin-12 peptide in rats. Bull Exp Biol Med 2011; 152:79-82.

[15] = tested on: atherosclerosis; assay: Atherosclerosis (APELIN publication repeated with ELABELA); conditions: mouse, in vivo
From the text: J Clin Invest 2008; 118:3343-54.
The experiments described in the above publication are repeated, with the replacement of APELIN with ELABELA.

[16] = tested on: erectile function; assay: Erectile dysfunction (APELIN publication repeated with ELABELA); conditions: mouse, in vivo
From the text: J Sex Med. 2013 Apr. 11. doi: 10.1111/jsm.12158.

[17] = tested on: hECs; assay: Growth and survival of hECs with recombinant ELA; type: cell-based, human; conditions: multipotent hECs
Description: as §3, §1, §2

[18] = tested on: hESCs; assay: Directed endoderm differentiation of hESCs (SOX17+ cell count); type: cell-based, human; conditions: 2.5 uM ELA peptide up to day 3
Description: Shef4TetR5-shELA and Shef4TetR5-shβ2M cells were cultured in the presence (shELA and shβ2M respectively) or absence (Control) of 20 ng/ml doxycycline for 1 passage (4 days) and dissociated with Accutase. […] 24 hours later, the media was changed to Endo differentiation media 1 [RPMI 1640 (Gibco), 1X B-27 supplement (Invitrogen), 50 ng/ml of Activin A (R&D Systems), 25 ng/ml BMP4 (R&D Systems) and 50 ng/ml bFGF (Invitrogen)] for 3 days. On day 3, the media was changed to Endo differentiation media 2 (RPMI 1640, B27, 50 ng/ml Activin) for 2 more days of culture. Rescue experiments were performed by adding 2.5 uM of ELA peptide to Shef4TetR5-shELA concurrently with doxycycline up to day 3, when the ELA peptide is no longer necessary as judged by downregulation of endogenous ELA.
On day 5, cells were fixed with 4% paraformaldehyde and stained with α SOX17 (AF1924, R&D Systems) and DAPI. For each well, three different randomly selected fields were imaged and the number of nuclei staining positive of SOX17 and DAPI were counted using a custom macro in ImageJ. A minimum of two wells per condition was used for each experiment, and a minimum of two independent experiments were performed to generate the results.

[19] = tested on: mesendodermal genes including GATA6, GATA4, FOXA2, EOMES and BRA; assay: qPCR of mesendodermal markers in hESCs; type: cell-based, human
Description: as §4

QRPVNLTMRRKLRKHNCLQRRCMPLHSRVPFP (listed as Homo sapiens) [ELA, synthetically produced recombinant mature human ELABELA, a 32 amino-acid peptide hormone]
blood pressure [1]: causes a reduction in blood pressure | growth of hESCs by cell numbers ([2]; FIG. 3C, relative to untreated hESCs): increased growth | survival of hESCs ([2]; FIG. 3D, relative to untreated hESCs): increased survival | concentration range in which the recombinant peptide is bioactive ([2]; hESCs, endogenous ELA in conditioned media is in the nM range): μM range | pro-growth and survival properties [3]: not seen; also recorded: exerted activity only on hESCs cultures | lineage commitment during embryoid body differentiation [4]: can differentiate into all three germ layers; also recorded: not biased towards mesoderm or endoderm lineages | symptoms of pulmonary arterial hypertension [5]: alleviates symptoms of pulmonary arterial hypertension | rescue of the growth of shELA hESCs [6]: sufficient to rescue; also recorded: entirely rescued to normal levels | HIV-1 entry [7]: prevents or slows-down HIV-1 entry | uptake by hESCs [8]: rapidly up-taken; also recorded: rapidly taken up | infarct size [9]: significantly decrease infarct size | pro-growth and survival properties [10]: not seen; also recorded: exerted activity only on hESCs cultures | levels of cell surface markers SSEA3 and TRA-1-60 [11]: do not lose; also recorded: unchanged levels | protection against heart failure [12]: able to provide protection against heart failure | rapid cellular uptake [13]: not in other tested cell types | myocardial infarction size and damage to cardiomyocytes ([14]; injection): limit the myocardial infarction size and reduce damage to cardiomyocytes | angiogenesis and cardiac repair postmyocardial infarction ([14]; rat, in vivo): promote angiogenesis and ameliorate cardiac repair postmyocardial infarction | Ang II-mediated increase in atherosclerosis burden [15]: mitigates the Ang II-mediated increase in atherosclerosis burden | abdominal aortic aneurysm formation and rupture [15]: inhibit abdominal aortic aneurysm formation and rupture | protection against atherosclerosis [15]: can protect against atherosclerosis | erectile function [16]: significant restoration of erectile function | pro-growth and survival properties [17]: not seen; also recorded: exerted activity only on hESCs cultures | rescue of endoderm differentiation of shELA hESCs [18]: entirely rescued; also recorded: sufficient to rescue | expression of mesendodermal markers [19]: significantly higher levels of mesendodermal markers; also recorded: consistently upregulated
